Data on four substances can be found in US20240325548A1, “DYNAMIC BIOACTIVE SCAFFOLDS AND THERAPEUTIC USES THEREOF AFTER CNS INJURY” (Northwestern University, priority 2021, published 2024).

Data set [1] can be described thus: Fluorescence depolarization (FD) with DPH encapsulated in PA nanofibers. In kind it is physicochemical. To be noted: for supramolecular motion on addition of Ca2+: 5 mM CaCl2, confirmed by FD and T2-NMR; for fluorescence anisotropy: DPH probe in hydrophobic core of IKVAV PA nanofibers. On the procedure:
An aqueous solution of 100 μL of annealed PA ([PA]=6 mM, [KCl]=3 mM, [NaCl]=150 mM) was added a THF solution (2 μL) of 1,6-diphenyl-1,3,5-hexatriene (DPH; 1.4 mM), and the mixture was incubated for 30 min at 25° C. Then, the mixture was diluted with aqueous KCl and NaCl (1900 μL, [KCl]=3 mM, [NaCl]=150 mM), incubated for 10-30 min at 25° C. to afford a solution of DPH (1.4 μM)-embedded PA (300 μM). To obtain IKVAV PA2 (A2G2) or IKVAV PA5 (G4) in the presence of CaCl2), 5 mM CaCl2) was then added to the DPH-embedded PA aqueous solution to afford PA: CaCl2) at a molar ratio of 6:1. DPH was exited at 336 nm and emission was recorded at 450 nm on an ISS model PC1 spectrofluorometer with a 300 W xenon arc lamp with power of 18 A. Excitation slit and emission slit widths were set as 1 mm (8 nm bandwidth). Anisotropy was calculated using the following equation: […]
Where F∥ represents the parallel intensity to the excitation plane, F⊥ is the perpendicular intensity to the excitation plane, g is grating factor (G-factor) that represents the intensity ratio of the sensitivity of the detection system for vertically and horizontally polarized light. G-factors were determined individually in each measurement. Results were averaged based on 34 iterations from two measurements.
For orientation: Fluorescence polarisation rises when a labelled molecule tumbles more slowly, as on binding a larger partner.

Data set [2] is described as follows: T2-NMR spin-spin relaxation rate of PA assemblies. In kind it is physicochemical. To be noted: for relaxation rate 1H-R2 of methylene protons on ε carbon of K residue in IKVAV: T2-NMR, IKVAV PA library. On the procedure: NMR spectra were acquired at 600 MHz on a Tecmag NMR spectrometer using a Doty diffusion probe with a sweep width of 6 kHz and 16k data points or at 600 MHz on a Brucker Neo system with QCI-F cryoprobe.
NMR spectra for IKVAV PAs were recorded at 25° C. using TFA-d, H2O/D2O in 9/1 ratio (D2O contains 0.05 wt. % 3-(trimethylsilyl) propionic-2,2,3,3-d4 acid, sodium salt) as solvents. Chemical shifts are reported in part per million (ppm). Structural assignment was performed using ^1H,^1H-gCOSY, ^1H,^13C-gHSCQAD, TOCSY and NOESY. Multiplicities are quoted as singlet (s), doublet (d), multiplets (m), doublet of doublets (dd), doublet of doublet of doublets (ddd), triplet (t), quartet (q). The […] and typical spectra required 32 scans. Additional scans (512) were required for accurate estimation of the aromatic signal intensity since the epitope containing aromatic protons was present at only 10 mol %.
The spin-spin relaxation rates were measured using the Carr-Purcell-Gill-Meiboom pulse sequence with a delay time of 0.2 ms in a variable loop. The peak intensity data was fit to and exponential in the form:
where τ is the length of the delay time, R2 is the spin-spin relaxation rate and b are the baseline.

In a further data set the test system is hNPCs. The data set can be described thus: Neuronal differentiation of hNPCs treated with IKVAV PAs (TUJ-1+ cells). It counts as cell-based, human. From the text:
Neural progenitor cells (NPCs) were differentiated from human embryonic stem cells HUES 64 (Harvard University) (see FIG. 2C). In short, 70% confluent stem cell cultures grown in Matrigel (Thermo Fisher) coated plates with mTESR medium (STEMCELL Technologies), were switched to N2B27 medium (50% DMEM: F12, 50% Neurobasal, supplemented with NEAA, Glutamax, N2 and B27; Gibco) containing dual SMAD inhibitors (SB431542, DNSK International and LDN-193189, Tocris) for 12 days to induce the generation of neural progenitors. Neuralization was enhanced by supplementing medium with laminin from day 5 to 12. Next, neural rosettes were dissociated with neural rosette selection reagent (STEMCELL Technologies) to obtain NPCs, which are expanded in N2B27 (Gibco) medium supplemented with bFGF (Millipore). For experimentation in the different PA platforms, NPCs were dissociated with Accutase (Innovative Cell technology), and cultured in the distinct platforms with DMEM: F12+N2+B27 medium with hyclone penicillin-streptomycin (GE Healthcare) and ascorbic acid (0.2 μg/mL; Sigma-Aldrich).
For IKVAV PA treatments, hNPCs were cultured on ornithine coatings (German Glass, Chemglass Life Science) in 6 well and 24 well plates at a density of 500,000 cells/well and 80,000 cells/well respectively. hNPCs were treated with […] of IKVAV PAs ([PA]=6 mM, [KCl]=3 mM, [NaCl]=150 mM) or recombinant laminin protein (10 mg/mL) in solution. IKVAV PA2 and IKVAV PA5 were also mixed with 5 mM CaCl2) at a ratio PA:CaCl2) 6:1 to treat hNPCs. For 2D experiments, hNPCs were cultured on the different IKVAV PAs or laminin coatings in 6 well and 24 well plates at densities mentioned above. For co-assembled experiments, hNPCs were cultured on the different co-assembled PA coatings in 6 well and 24 well plates at a density of 400,000 cells/well and 50,000 cells/well respectively.
hNPCs were fed 4 times a week with DMEM: F12+N2^+B27 medium with hyclone penicillin-streptomycin and ascorbic acid. After 24 h, 72 h 1- or 2-weeks in vitro, cell lysates were harvested or fixed for WB or ICC, respectively. Three replicates per condition and at least three independent experiments were carried out for all conditions investigated.
For immunofluorescence, fixed primary cultures or free-floating tissue sections (40 m Thick) were incubated in blocking buffer containing 0.02% Triton-X (Sigma-Aldrich), 1% NHS (Gibco) and PBS 1× (Gibco). Samples were incubated with primary antibodies over night at 4° C. Alexa-488, Alexa-555 and/or Alexa-647 (1:500, Thermofisher) were used as secondary antibodies. DAPI (1:500, Thermofisher) was used to stain nuclei. Finally, the samples were mounted on coverslips with Immu-Mount (Fisher Scientific) solution for imaging.
For in vitro cell quantification, image files were imported into NIH Image J (1.51) software and the “analyze particles” and “cell counter” functions were used to measure the total number of cells in a determined area. Serial tissue sections were stained with NeuN and ChAT using free-floating immunostaining were quantified using Nikon Elements software. The rostral and caudal borders of the lesions were chosen as the first cross-sections that had NeuN staining in all four gray matter horns. 8 sections within the lesion were chosen per animal and expressed as number of neurons per section. Automated multichannel image acquisition, image stitching, and z-stack reconstruction ([…]) were carried out on a Nikon GasP R1 confocal microscope to image the entire selected cross-section for NeuN and Chat markers for all conditions.

Where [3] appears, read: T2 relaxation of K residue of IKVAV PAs, no Ca2+.

On to C16-A2G2E4GIKVAV [IKVAV PA2], for which the “supramolecular motion on addition of Ca2+” value in data set [1] is recorded as “suppressed”. Moreover, in data set [1], the fluorescence anisotropy was found to be 0.21. For the same substance, the “relaxation rate 1H-R2 of methylene protons on ε carbon of K residue in IKVAV” value in data set [2] was 2.7 ± 0.1 s⁻¹. The R2 in data set [2] (setting [3]) came out at 2.7 ± 0.1 s⁻¹; in data set [2] (T2 relaxation of K residue, +Ca2+) it was 8.6 ± 0.5 s⁻¹. Besides, the “percentage of induction of TUJ-1+ neuronal cells” value (“percentage” for short) in the data set on hNPCs is recorded as 20.5±1%.
For C16-G4E4GIKVAV [IKVAV PA5], in data set [1], the “supramolecular motion on addition of Ca2+” value was “suppressed” and the fluorescence anisotropy is listed as 0.18. Also, in data set [2], the “relaxation rate 1H-R2 of methylene protons on ε carbon of K residue in IKVAV” value turned out to be 2.6 ± 0.003 s⁻¹. In data set [2] (setting [3]), this substance showed an R2 of 2.6 ± 0.03 s⁻¹. The “percentage” value with hNPCs worked out at 20.7±1.2%.
The substance C16-V2A2E4GIKVAV [IKVAV PA1] returned an R2 in data set [2] (setting [3]) of 11.2 ± 2.9 s⁻¹. Moreover, the “percentage” value in the data set on hNPCs was 8.2±0.7%.
Regarding C16-VAG2E4GIKVAV [IKVAV PA4], the fluorescence anisotropy in data set [1] worked out at 0.30. The substance also displayed an R2 in data set [2] (setting [3]) of 5.6 ± 0.4 s⁻¹. Moreover, the “percentage” value with hNPCs was found to be 14±1.2%.
